Patent publication US7181884B2, “Materials and methods for controlling pests” (University of Florida Research Foundation, Inc., priority 2001, dated 2007)
Where two headings read alike, the source gives them in different places.

Assays:
Aedes aegypti larvae = system: Aedes aegypti larvae
Source text: Another experiment assessed the specificity of L-methionine compared to L-proline on Aedes aegypti survival. Mosquito larvae (third or fourth instar; N=240) were placed in water containing various concentrations of L-proline or L-methionine, and fed ad libitum with commercial dried fish food applied to the water.

Manduca sexta larvae [1] = conditions: 10% wt./wt. of dry diet components
Description: The effect of feeding L-methionine to Manduca sexta larvae as they progressed from the first through fifth instar stages was determined. Colonies of hornworms are commonly reared for research by well-accepted techniques that account for environmental conditions such as feed availability, daily photoperiod, temperature, etc. The caterpillars were obtained from Carolina Biological Supply Co. and were placed in a lighted 27° C. incubator and fed hydrated reconstituted Dry Tobacco Hornworm Medium Stock No. L-908D (Carolina Biological Supply Co., Burlington, N.C.) supplemented with or without (control) L-methionine supplementation.
The effect of feeding L-methionine to Manduca sexta larvae as they progressed from the first through fifth instar stages was studied. In one study, the caterpillars were placed in a 27° C. incubator (photoperiod 16 hours light, 8 hours dark; relative humidity 60%) and fed a hydrated standard defined hornworm diet without (control) or with L-methionine supplementation (10% wt./wt. of dry components).

[2] = system: Manduca sexta neonate larvae; conditions: all test doses, sprayed excised eggplant leaves, water vehicle
Source text: (§1) Another study evaluated the Manduca larvae mortality on excised leaves of host plant (eggplant; Solanum melongena) that were sprayed with various concentrations of L-methionine dissolved in deionized water. Manduca sexta neonate larvae were initially reared on eggplants in Plexiglas cylinders. Larvae (total N=64/treatment) were exposed to eggplant leaves that were sprayed (then dried) with aqueous solutions of methionine.

[3] = system: eggplant; Solanum melongena; conditions: in vivo
Source text: as §1

Manduca sexta larvae [4] = conditions: Silwet-L77
Description: In one study, leaves of eggplant (Solanum melongena) were sprayed with a deionized water/Silwet-L77 solution containing varying concentrations of methionine, then allowed to dry. The Silwet-L77 was prepared according to the manufacture's instructions. Manduca sexta larvae (N=400; 80 per methionine dose) were then exposed to the eggplant leaves during 10 days, and surviving larvae were counted daily.

[5] = system: Leptinotarsa decemlineata larvae; conditions: whole eggplants sprayed, water vehicle
Source text: Host growing whole eggplants in environmental growth chanmbers were sprayed with deionized water containing varying concentrations of methionine, then dried. Leptinotarsa decemlineata larvae (N=160 per group) were exposed to the leaves, and surviving larvae were counted daily.

[6] = system: Colorado potato beetle, Leptinotarsa decemlineata; conditions: field
Description: Eggplant (Solanum melongena) growing in an outside test field were treated with various concentrations of aqueous L-methionine solutions applied to the leaves, which were allowed to dry. Then larvae of Colorado potato beetle, Leptinotarsa decemlineata, were applied to the plants, and surviving larvae were counted daily.

[7] = system: eggplant (Solanum melongena); conditions: in vivo
Source text: Host eggplant (Solanum melongena) growing in fields were sprayed with deionized water containing varying concentrations of methionine, then dried.

CAATCH1 = CAATCH1 expressed in cell membranes; cited from earlier work

Row | SMILES | effect on larvae survival compared to 0% methionine control (Aedes aegypti larvae; all test days, P≧0.05) | larval development (Manduca sexta larvae [1]) | larvae killed (Manduca sexta larvae [1]; within 3 days) | larvae dead [2] | plant viability [3] | time to reach complete mortality (Manduca sexta larvae [4]; leaves treated with 0.31% methionine) | time to reach complete mortality (Manduca sexta larvae [4]; leaves treated with 0.45% (w/w) methionine) | methionine concentration at which complete mortality was attained [5] | efficacy of lowest concentration attempted ([6]; 0.06% (w/w on leaves)) | larvae mortality versus concentration ([6]; various concentrations) | fruit yield mean numbers or mean weights [7] | larvae killed (Aedes aegypti larvae; 0.7% methionine in water, day 3) | LD50 (Aedes aegypti larvae; day 2) | LD50 (Aedes aegypti larvae; day 3) | CAATCH1-associated voltage-dependent amino acid-elicited steady state inward cation currents (CAATCH1)
1 | O=C(O)[C@@H]1CCCN1 [L-proline, reference compound] | no effect |  |  |  |  |  |  |  |  |  |  |  |  |  | 
2 | CSCC[C@H](N)C(=O)O [L-methionine] |  | prevented all the caterpillars from advancing in development | 100% | 100% | plant viability was not affected | 4 days | 2 days | ≤ 0.15% | efficacious | increased in a dose-dependent manner | not significantly different from control | 100% | ~0.5 % methionine | ~0.3 % methionine | blocked
